In the supplement of paper PMC10307832:

Assays:
Assay in all cases: relative viability (nuclei count vs DMSO), 5 days (fraction); higher = more cells survive
[1] = compound: O=C(c1cc(Cc2n[nH]c(=O)c3ccccc23)ccc1F)N1CCN(C(=O)C2CC2)CC1 [Olaparib] + Nc1ncn([C@H]2C[C@H](O)[C@@H](CO)O2)c(=O)n1 [Decitabine] (partner 2 µM)
Outline: (§1)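 Lung cancer cell lines were seeded in 1536-well plates and dosed by pin tool the next day, with either a single drug or a fixed anchor-drug dose combined with five library-drug doses (not always all listed) spaced in √10 steps. Five days later, one step fixed the cells and stained their nuclei (final 0.05% Triton X-100, 1% formaldehyde, 1 ug/ml Hoechst), and nuclei were counted on 4× images. Relative viability is the nuclei count in treated wells divided by the count in vehicle wells, and each value is the median of duplicate plates.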

[2] = compound: CC(C)C[C@H](NC(=O)[C@H](CCc1ccccc1)NC(=O)CN1CCOCC1)C(=O)N[C@@H](Cc1ccccc1)C(=O)N[C@@H](CC(C)C)C(=O)[C@@]1(C)CO1 [Carfilzomib] + CC1(C)CCC(c2ccc(Cl)cc2)=C(CN2CCN(c3ccc(C(=O)NS(=O)(=O)c4ccc(N[C@H](CCN5CCOCC5)CSc5ccccc5)c(S(=O)(=O)C(F)(F)F)c4)cc3)CC2)C1 [Navitoclax] (partner 0.5 µM)
Outline: as §1

[3] = compound: O=C(c1cc(Cc2n[nH]c(=O)c3ccccc23)ccc1F)N1CCN(C(=O)C2CC2)CC1 [Olaparib] + CC(C)C[C@H](NC(=O)[C@H](Cc1ccccc1)NC(=O)c1cnccn1)B(O)O [Bortezomib] (partner 0.002 µM)
Outline: as §1

[4] = compound: CC(C)C[C@H](NC(=O)[C@H](CCc1ccccc1)NC(=O)CN1CCOCC1)C(=O)N[C@@H](Cc1ccccc1)C(=O)N[C@@H](CC(C)C)C(=O)[C@@]1(C)CO1 [Carfilzomib] + N=C(N)NC(=N)NCCc1ccccc1 [Phenformin] (partner 250 µM)
Outline: as §1

Row | Cell Line | relative viability ([1]; first compound 0.08 µM) | relative viability ([1]; first compound 0.253 µM) | relative viability ([1]; first compound 2.53 µM) | relative viability ([1]; first compound 8 µM) | relative viability ([2]; first compound 0.001 µM) | relative viability ([2]; first compound 0.003162 µM) | relative viability ([2]; first compound 0.01 µM) | relative viability ([2]; first compound 0.03162 µM) | relative viability ([2]; first compound 0.1 µM) | relative viability ([3]; first compound 0.08 µM) | relative viability ([3]; first compound 0.253 µM) | relative viability ([3]; first compound 2.53 µM) | relative viability ([3]; first compound 8 µM) | relative viability ([4]; first compound 0.001 µM) | relative viability ([4]; first compound 0.003162 µM) | relative viability ([4]; first compound 0.01 µM) | relative viability ([4]; first compound 0.03162 µM) | relative viability ([4]; first compound 0.1 µM)
1 | HCC-44 | 0.812 | 0.846 | 0.783 | 0.802 | 0.94 | 1.01 | 1 | 0.829 | 0.261 | 0.915 | 0.873 | 0.952 | 0.893 | 0.169 | 0.289 | 0.145 | 0.107 | 0.122
2 | HCC-78 | 0.613 | 0.562 | 0.508 | 0.455 | 0.546 | 0.925 | 0.748 | 0.503 | 0.179 | 0.489 | 0.545 | 0.496 | 0.537 | 0.539 | 0.683 | 0.78 | 0.668 | 0.235
3 | HCC-366 | 0.186 | 0.144 | 0.0931 | 0.113 | 1.02 | 0.98 | 0.956 | 1.03 | 0.0374 | 1.06 | 0.959 | 0.913 | 0.384 | 0.622 | 0.678 | 0.596 | 0.565 | 0.17
4 | IA-LM | – | – | – | – | 0.851 | 0.815 | 0.879 | 0.0554 | 0.01 | 0.743 | 0.739 | 0.745 | 0.659 | – | – | – | – | –
5 | LCLC-103H | 0.626 | 0.727 | 0.674 | 0.626 | – | – | – | – | – | 1.04 | 1.07 | 1.05 | 0.948 | 0.328 | 0.327 | 0.297 | 0.285 | 0.17
6 | LK-2 | 0.258 | 0.254 | 0.271 | 0.184 | 0.845 | 0.907 | 0.879 | 0.209 | 0.175 | – | – | – | – | 0.628 | 0.584 | 0.158 | 0.119 | 0.182
7 | NCI-H358 | 0.148 | 0.157 | 0.23 | 0.138 | – | – | – | – | – | – | – | – | – | 0.338 | 0.4 | 0.203 | 0.0604 | 0.0694
8 | NCI-H522 | 0.745 | 0.645 | 0.724 | 0.598 | – | – | – | – | – | – | – | – | – | 0.697 | 0.719 | 0.668 | 0.515 | 0.401
9 | NCI-H650 | 0.266 | 0.293 | 0.241 | 0.281 | – | – | – | – | – | 0.978 | 0.672 | 0.561 | 0.516 | – | 0.536 | 0.451 | 0.345 | 0.148
10 | NCI-H661 | 0.454 | 0.434 | 0.4 | 0.382 | – | – | – | – | – | 1.06 | 0.745 | 0.703 | 0.582 | 0.268 | 0.272 | 0.272 | 0.248 | 0.215
11 | NCI-H1299 | – | – | – | – | 1.08 | 1.05 | 1.03 | 0.887 | 0.195 | 1.07 | 0.97 | 1.04 | 0.968 | – | – | – | – | –
12 | NCI-H1395 | 0.64 | 0.654 | 0.504 | 0.494 | 0.964 | 1.24 | 0.995 | 0.481 | 0.347 | – | – | – | – | 0.448 | 0.457 | 0.441 | 0.298 | 0.314
13 | NCI-H1563 | – | – | – | – | – | – | – | – | – | 0.876 | 0.881 | 0.896 | 0.692 | 0.673 | 0.681 | 0.61 | 0.661 | 0.48
14 | NCI-H1623 | – | – | – | – | – | – | – | – | – | – | – | – | – | 0.5 | 0.612 | 0.725 | 0.19 | 0.414
15 | NCI-H1648 | 0.431 | 0.384 | – | 0.44 | – | – | – | – | – | – | – | – | – | – | – | – | – | –
16 | NCI-H1703 | – | – | – | – | 1.13 | 1.17 | 0.164 | 0.151 | 0.102 | 0.367 | 0.301 | 0.445 | 0.417 | – | – | – | – | –
17 | NCI-H1944 | 0.397 | 0.401 | 0.336 | 0.273 | 0.998 | 1.16 | 1.01 | 1.05 | 0.546 | – | – | – | – | 0.187 | 0.2 | 0.202 | 0.204 | 0.139
18 | NCI-H2170 | 0.422 | 0.369 | 0.277 | 0.253 | 0.698 | 0.688 | 0.617 | 0.409 | 0.197 | – | – | – | – | 0.423 | 0.457 | 0.427 | 0.411 | 0.232
19 | NCI-H2228 | – | – | – | – | 1.06 | 1.56 | 0.788 | 0.699 | 0.0563 | 1.02 | 0.821 | 1.02 | 0.661 | 0.332 | 0.293 | 0.207 | 0.0804 | 0.108
20 | NCI-H2342 | 0.756 | 0.606 | 0.663 | 0.619 | – | – | – | – | – | – | – | – | – | 0.652 | 0.521 | 0.715 | 0.671 | 0.352
21 | SK-MES-1 | 0.305 | 0.299 | 0.303 | 0.262 | 1.29 | 1.25 | 1.26 | 0.416 | 0.172 | – | – | – | – | 0.655 | 0.745 | 0.635 | 0.551 | 0.146
22 | SW 900 | 0.355 | 0.331 | 0.413 | 0.355 | – | – | – | – | – | – | – | – | – | 0.431 | 0.937 | 0.133 | 0.163 | 0.138
